pIC50: −log10 of the molar value.
What was measured:
AR-VP16 [1] = molecular target: T1, AR-VP16 (Homo sapiens, UniProt P10275); assay: AR-VP16 DNA Binding Assay, agonist mode (HepG2 cells); format: cell-based; details: Emax >20x DMSO control = agonist
T1 sequence (P10275 560-920 limits assumed): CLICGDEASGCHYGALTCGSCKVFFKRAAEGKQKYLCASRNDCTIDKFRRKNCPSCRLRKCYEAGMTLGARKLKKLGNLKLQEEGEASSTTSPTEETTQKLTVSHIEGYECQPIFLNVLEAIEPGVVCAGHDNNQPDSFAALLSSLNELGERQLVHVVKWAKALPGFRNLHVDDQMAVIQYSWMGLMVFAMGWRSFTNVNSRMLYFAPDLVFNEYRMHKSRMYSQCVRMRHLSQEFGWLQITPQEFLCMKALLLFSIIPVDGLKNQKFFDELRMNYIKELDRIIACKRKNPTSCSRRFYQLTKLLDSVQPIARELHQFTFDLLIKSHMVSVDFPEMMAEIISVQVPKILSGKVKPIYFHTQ

AR-VP16 [2] = molecular target: T1, AR-VP16; assay: AR-VP16 DNA Binding Assay, antagonist mode (HepG2 cells, 0.1 nM R1881); format: cell-based
In short: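 HepG2 cells transiently transfected with AR-VP16 (Lipofectin), incubated overnight, then treated with compound in RPMI with charcoal-stripped serum. Antagonist mode adds R1881 at 0.1 nM final. Cells lysed after 48 h incubation for read-out.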

N#Cc1ncc(N2C(=O)C3(CCC3)N(c3ccc(C(=O)NCc4ccco4)c(F)c3)C2=S)cc1C(F)(F)F [Compound 266, 4-(7-(6-Cyano-5-(trifluoromethyl)pyridin-3-yl)-8-oxo-6-thioxo-5,7-diazaspiro[3.4]octan-5-yl)-2-fluoro-N-(furan-2-ylmethyl)benzamide]
ARVP16 DNA Binding Assay (Agonist mode): Agonist? (AR-VP16 [1]): No (Agonist defined as a compound whose Emax in the ARVP16 DNA Binding Assay (Agonist mode) is >20x DMSO control) | pIC50 (AR-VP16 [2]): > 6.00

CNC(=O)c1ccc(N2C(=S)N(c3cnc(C#N)c(C(F)F)c3)C(=O)C23CCC3)cc1F [Compound 113, 4-(7-(6-Cyano-5-(difluoromethyl)pyridin-3-yl)-8-oxo-6-thioxo-5,7-diazaspiro[3.4]octan-5-yl)-2-fluoro-N-methylbenzamide]
ARVP16 DNA Binding Assay (Agonist mode): Agonist? (AR-VP16 [1]): No (Agonist defined as a compound whose Emax in the ARVP16 DNA Binding Assay (Agonist mode) is >20x DMSO control) | pIC50 (AR-VP16 [2]): > 6.00

Cc1cc(N2C(=O)C(C)(C)N(c3ccc(OC4CCN(C)CC4)cc3)C2=S)cnc1C#N [Compound 197, 5-(4,4-Dimethyl-3-(4-((1-methylpiperidin-4-yl)oxy)phenyl)-5-oxo-2-thioxoimidazolidin-1-yl)-3-methylpicolinonitrile]
ARVP16 DNA Binding Assay (Agonist mode): Agonist? (AR-VP16 [1]): No (Agonist defined as a compound whose Emax in the ARVP16 DNA Binding Assay (Agonist mode) is >20x DMSO control) | pIC50 (AR-VP16 [2]): < 6.00

CN(CCCNC(=O)c1ccc(N2C(=S)N(c3cnc(C#N)c(C(F)(F)F)c3)C(=O)C23CCC3)cc1F)C1CCCC1 [Compound 307, 4-(7-(6-Cyano-5-(trifluoromethyl)pyridin-3-yl)-8-oxo-6-thioxo-5,7-diazaspiro[3.4]octan-5-yl)-N-(3-(cyclopentyl(methyl)amino)propyl)-2-fluorobenzamide]
ARVP16 DNA Binding Assay (Agonist mode): Agonist? (AR-VP16 [1]): No (Agonist defined as a compound whose Emax in the ARVP16 DNA Binding Assay (Agonist mode) is >20x DMSO control) | pIC50 (AR-VP16 [2]): > 6.00

N#Cc1ncc(N2C(=O)C3(CCC3)N(c3ccc(Oc4cccnc4)cc3)C2=S)cc1C(F)(F)F [Compound 39, 5-(8-Oxo-5-(4-(pyridin-3-yloxy)phenyl)-6-thioxo-5,7-diazaspiro[3.4]octan-7-yl)-3-(trifluoromethyl)picolinonitrile]
ARVP16 DNA Binding Assay (Agonist mode): Agonist? (AR-VP16 [1]): Yes (Agonist defined as a compound whose Emax in the ARVP16 DNA Binding Assay (Agonist mode) is >20x DMSO control) | pIC50 (AR-VP16 [2]): > 6.00

COc1cc(F)ccc1N1C(=S)N(c2cnc(C#N)c(C(F)(F)F)c2)C(=O)C12CCC2 [Compound 29, 5-(5-(4-Fluoro-2-methoxyphenyl)-8-oxo-6-thioxo-5,7-diazaspiro[3.4]octan-7-yl)-3-(trifluoromethyl)picolinonitrile]
ARVP16 DNA Binding Assay (Agonist mode): Agonist? (AR-VP16 [1]): No (Agonist defined as a compound whose Emax in the ARVP16 DNA Binding Assay (Agonist mode) is >20x DMSO control) | pIC50 (AR-VP16 [2]): > 6.00

N#Cc1ccc(N2C(=S)N(c3cnc(C#N)c(C(F)(F)F)c3)C(=O)C23CCC3)cc1 [Compound 12, 5-(5-(4-Cyanophenyl)-8-oxo-6-thioxo-5,7-diazaspiro[3.4]octan-7-yl)-3-(trifluoromethyl)picolinonitrile]
ARVP16 DNA Binding Assay (Agonist mode): Agonist? (AR-VP16 [1]): No (Agonist defined as a compound whose Emax in the ARVP16 DNA Binding Assay (Agonist mode) is >20x DMSO control) | pIC50 (AR-VP16 [2]): > 6.00

Cc1cc(N2C(=O)C3(CCC3)N(c3ccc(C(=O)Nc4cccc(Cl)c4)c(F)c3)C2=S)cnc1C#N [Compound 295, N-(3-Chlorophenyl)-4-(7-(6-cyano-5-methylpyridin-3-yl)-8-oxo-6-thioxo-5,7-diazaspiro[3.4]octan-5-yl)-2-fluorobenzamide]
ARVP16 DNA Binding Assay (Agonist mode): Agonist? (AR-VP16 [1]): No (Agonist defined as a compound whose Emax in the ARVP16 DNA Binding Assay (Agonist mode) is >20x DMSO control) | pIC50 (AR-VP16 [2]): > 6.00

N#Cc1ncc(N2C(=O)C3(CCC3)N(c3ccc4cnccc4c3)C2=S)cc1C(F)(F)F [Compound 51, 5-(5-(Isoquinolin-6-yl)-8-oxo-6-thioxo-5,7-diazaspiro[3.4]octan-7-yl)-3-(trifluoromethyl)picolinonitrile]
ARVP16 DNA Binding Assay (Agonist mode): Agonist? (AR-VP16 [1]): No (Agonist defined as a compound whose Emax in the ARVP16 DNA Binding Assay (Agonist mode) is >20x DMSO control) | pIC50 (AR-VP16 [2]): > 6.00

— US9108944B2, “Androgen receptor modulators and uses thereof” (ARAGON PHARMACEUTICALS, INC., priority 2010, dated 2015)
